Nine compounds from ChEMBL document CHEMBL3425406, “Design, Synthesis, and Evaluation of Tetrasubstituted Pyridines as Potent 5-HT2C Receptor Agonists” (ACS Med Chem Lett, 2015) can be followed below.

As usually defined, the logD is lipophilicity at a set pH, counting ionised and neutral species. A high value points to a more lipophilic compound. The term Papp A→B denotes the apparent permeability from the apical to the basolateral side of a cell layer. What is called efflux ratio is the permeability from basolateral to apical divided by that in the opposite direction, in the common usage. The Emax is the greatest response seen or fitted, relative to the assay's reference. Broadly, the EC50 is the concentration giving half of the maximal effect.

SMILES strings stand for the structures.

The nature of data set [1]: Lipophilicity, log D of the compound. It counts as physicochemical. Particulars: octanol/water.
In data set [2] the test system is MDR1. The experiment in a line: Apparent permeability across apical to basolateral side in MDCK cells expressing MDR1. It is filed as ADME, cell-based, Canis lupus familiaris. Particulars: dog.
For data set [3], the system named is MDR1. The data set can be described thus: Efflux ratio of apparent permeability across basolateral to apical over apical to basolateral side in MDCK cells expressing MDR1. It is filed as ADME, cell-based, Canis lupus familiaris. Particulars: dog.
Data set [4] in a line: Permeability across dog RRCK cells. It is filed as ADME, cell-based, Canis lupus familiaris, MDCKII-LE. Particulars: MDCK, read-out: permeability.
Data set [5] concerns the target T1, 5-hydroxytryptamine receptor 2B (Homo sapiens, UniProt P41595). The data set can be described thus: Agonist activity at human recombinant 5-HT2B receptor expressed in CHOK1 cells assessed as induction of Ca2+ mobilization at 30 uM after 1 hr by FLIPR assay relative to 5-HT. It is filed as functional, cell-based. Particulars: CHO-K1. In general terms: Calcium flux is commonly read through the fluorescence of an indicator in the cells.

The target in data set [6] is T1, 5-hydroxytryptamine receptor 2B. The experiment in a line: Agonist activity at human recombinant 5-HT2B receptor expressed in CHOK1 cells assessed as induction of Ca2+ mobilization after 1 hr by FLIPR assay. It counts as functional, cell-based, CHO-K1.
Data set [7] has the same target. The experiment in a line: Inhibition of Cy3B conjugated serotonin analogue binding to human recombinant 5-HT2B receptor expressed in CHOK1 cells after 60 mins by fluorescence polarization assay. Particulars: CHO-K1. It is filed as cell-based. (In fluorescence polarisation assays a small probe gives low polarisation when free and higher when bound to something large.)

T1 sequence (P41595 whole entry): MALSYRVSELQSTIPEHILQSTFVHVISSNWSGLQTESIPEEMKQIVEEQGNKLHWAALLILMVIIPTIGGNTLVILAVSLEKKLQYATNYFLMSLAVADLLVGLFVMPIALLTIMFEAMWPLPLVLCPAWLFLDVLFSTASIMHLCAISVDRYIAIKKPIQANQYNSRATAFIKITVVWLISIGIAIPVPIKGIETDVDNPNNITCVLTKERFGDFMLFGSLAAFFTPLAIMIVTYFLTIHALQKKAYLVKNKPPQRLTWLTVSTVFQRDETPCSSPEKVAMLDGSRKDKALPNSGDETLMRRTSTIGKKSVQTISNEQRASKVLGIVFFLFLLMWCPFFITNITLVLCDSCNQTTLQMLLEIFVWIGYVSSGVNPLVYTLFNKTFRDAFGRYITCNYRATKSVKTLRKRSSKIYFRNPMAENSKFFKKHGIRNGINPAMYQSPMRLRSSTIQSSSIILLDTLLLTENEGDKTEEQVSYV

The compound `c1ccc(Cc2cc3c(cn2)CCNCC3)cc1` showed a logD in data set [1] of 0.5. For the same compound, in the data set with MDR1 [2], the Papp A→B worked out at 3.9 ×10⁻⁶ cm/s. In addition, the efflux ratio in the data set on MDR1 [3] came to 1.5. In addition, the Papp in data set [4] came out at 18 ×10⁻⁶ cm/s. The maximal effect (Emax) in data set [5] stood at 53%. Moreover, the EC50 in data set [6] is 27 nM.
As for `CCCNc1nc(Cc2ccccc2)cc2c1CCNCC2`, the logD in data set [1] is 1. Besides, the Papp A→B in the data set with MDR1 [2] was determined as 1.5 ×10⁻⁶ cm/s. For the same compound, in the data set with MDR1 [3], the efflux ratio stood at 3.5. Further, in data set [4], the Papp was 4 ×10⁻⁶ cm/s. In addition, the Emax in data set [5] came to 38%. Also, the EC50 in data set [6] was found to be 27 nM.
For `c1ccc(CNc2nc(Cc3ccccc3)cc3c2CCNCC3)cc1`, the Kb in data set [7] was 121 nM. The logD in data set [1] was found to be 1.7. In addition, in the data set on MDR1 [2], the Papp A→B was 0.6 ×10⁻⁶ cm/s. The efflux ratio in the data set on MDR1 [3] stood at 3.6. Moreover, the Papp in data set [4] is 2 ×10⁻⁶ cm/s.
`CNc1nc(Cc2ccccc2)cc2c1CCNCC2` came in with a logD in data set [1] of 0.4. In addition, in the data set with MDR1 [2], the Papp A→B is 2.5 ×10⁻⁶ cm/s. Moreover, in the data set on MDR1 [3], the efflux ratio is 2.8. In addition, the Papp in data set [4] is 8 ×10⁻⁶ cm/s. For the same compound, the Emax in data set [5] amounted to 69%. The EC50 in data set [6] is 1480 nM.
For the compound `CC(C)Nc1nc(Cc2ccccc2)cc2c1CCNCC2`, the logD in data set [1] turned out to be 1. The Papp in data set [4] was found to be 12 ×10⁻⁶ cm/s. Besides, the Emax in data set [5] was determined as 32%. In addition, in data set [6], the EC50 is 33 nM.
On to `CN(C)c1nc(Cc2ccccc2)cc2c1CCNCC2`, for which, in data set [1], the pH-dependent lipophilicity (logD) was determined as 0.6. For the same compound, in the data set with MDR1 [2], the Papp A→B turned out to be 2.1 ×10⁻⁶ cm/s. The efflux ratio in the data set on MDR1 [3] was determined as 2.2. In data set [4], the Papp stood at 8 ×10⁻⁶ cm/s. Moreover, the Emax in data set [5] amounted to 38%. Also, the EC50 in data set [6] came out at 30 nM.
For the compound `c1ccc(Cc2cc3c(c(NCC4CC4)n2)CCNCC3)cc1`, the logD in data set [1] is 1.2. In addition, in the data set on MDR1 [2], the Papp A→B was found to be 0.8 ×10⁻⁶ cm/s. Also, the efflux ratio with MDR1 [3] stood at 6.1. For the same compound, the Papp in data set [4] was found to be 2 ×10⁻⁶ cm/s. Also, the Emax in data set [5] turned out to be 51%. For the same compound, the EC50 in data set [6] came out at 22 nM.
`CC(C)CNc1nc(Cc2ccccc2)cc2c1CCNCC2` came in with a logD in data set [1] of 1.7.
Take `CCNc1nc(Cc2ccccc2)cc2c1CCNCC2`: in data set [1], the logD worked out at 0.6. For the same compound, in the data set on MDR1 [2], the Papp A→B stood at 1.8 ×10⁻⁶ cm/s. In addition, in the data set on MDR1 [3], the efflux ratio was found to be 2.3. Moreover, the Papp in data set [4] came out at 7 ×10⁻⁶ cm/s. Moreover, in data set [5], the Emax was 28%. In addition, the EC50 in data set [6] is 18 nM.
